# Measured values from patent US20110190300A1, “AMIDE COMPOUNDS AND THE USE THEREOF” (priority 2007, published 2011).
# Experiments:
# [1] = target: T1, N-type calcium channel (NTCC) (Homo sapiens, UniProt Q00975); assay: FLIPR calcium mobilization assay for N-type calcium channel; assay type: cell-based; settings: calcium mobilization in vitro assay; differentiated IMR32 cells, 5 μM nitrendipine, 90 mM KCl
# T1 construct: host or cells: IMR32 cells differentiated with dibutyryl cyclic AMP and bromodeoxyuridine
# Procedure: Cell maintenance and differentiation. Unless noted otherwise, cell culture reagents were purchased from Mediatech of Herndon, Md. IMR32 cells (American Type Culture Collection, ATCC, Manassas, Va.) were routinely cultured in growth medium consisting of minimum essential medium containing 10% fetal bovine serum (FBS, Hyclone, Logan, Utah), 100 U/mL penicillin, 100 μg/mL streptomycin, 2 mM L-glutamine, 1 mM sodium pyruvate, and 1× MEM non-essential amino acids. 80-90% confluent flasks of cells were differentiated using the following differentiation medium: Growth medium plus 1 mM dibutyryl cyclic AMP (Sigma, St. Louis, Mo.), and 2.5 μM bromodeoxyuridine (Sigma). Cells were differentiated for 8 days by replacing differentiation medium every 2-3 days.
# FLIPR Calcium Mobilization Assay for N-type Calcium Channel. One day prior to performing this assay, differentiated IMR32 cells were treated with 1× CellStripper, and seeded on poly-D-lysine-coated 96-well clear-bottom black plates (Becton Dickinson, Franklin Lakes, N.J.) at 200,000 cells/well. On the day of the assay, the cell plates were washed with IMR32 buffer (127 mM NaCl, 1 mM KCl, 2 mM MgCl2, 700 μM NaH2PO4, 5 mM CaCl2, 5 mM NaHCO3, 8 mM HEPES, 10 mM glucose, pH 7.4), then pre-stimulated with KCl and loaded as follows: 0.05 mL of IMR32 buffer, 0.05 mL of each compound tested diluted in IMR32 buffer containing 20 μM nitrendipine (Sigma), and 0.1 mL KCl dissolved in IMR32 buffer, plus Fluo-4 were added (3 μM final concentration, Molecular Probes, Eugene, Oreg.). Final test compound concentrations ranged from about 846 pM to about 17 μM, final nitrendipine concentration was 5 μM, and final KCl concentration was 90 mM. After 1 hour, the cells were washed twice with 0.05 mL of each compound tested in nitrendipine-containing IMR32 buffer (no KCl or Fluo-4), and then replaced with 0.1 mL of each compound tested in nitrendipine-containing IMR32 buffer. Plates were then transferred to a Fluorimetric Imaging Plate Reader (FLIPR^96, Molecular Devices, Inc., Sunnyvale, Calif.) for assay. The FLIPR measured basal Fluo-4 fluorescence for 315 seconds (i.e., 5 minutes and 15 seconds), then added 0.1 mL KCl agonist dissolved in IMR32 buffer and measured fluorescence for another 45 seconds. Final test compound concentrations on the cells after FLIPR read ranged from about 846 pM to about 17 μM, final nitrendipine concentration was 5 μM, and final KCl concentration was 90 mM. Data were collected over the entire time course and analyzed using Excel, Graph Pad Prism (version 3.02, Graph Pad, San Diego, Calif.), or an in-house non-linear regression analysis software.
# [2] = target: T2, L-type calcium channel (LTCC) (Rattus norvegicus, UniProt P22002); assay: FLIPR calcium mobilization assay for L-type calcium channel; assay type: cell-based; settings: calcium mobilization in vitro assay; HEK293 cells stably expressing recombinant rat LTCC subunits (α1c, α2δ, β1), 90 mM KCl
# T2 construct: expressed in transfected cells; host or cells: HEK293, stably transfected (pcDNA6.2DEST α1c, pcDNA3.2DEST β1, pcDNA3.1-Zeo α2δ)
# Procedure: Recombinant human embryonal kidney cells (HEK293, ATCC) stably transfected with either N-type calcium channel (NTCC) subunits (α1b, α2δ, and β3) or L-type calcium channel (LTCC) subunits (α1c, α2δ, and β1) were routinely cultured in growth medium consisting of Dulbecco's Modified Eagles Medium containing 10% FBS, 100 U/mL penicillin, 100 μg/mL streptomycin, 4 mM L-glutamine, 500 μg/mL geneticin (G418), 20 μg/mL Blasticidin S (InVivogen, San Diego, Calif.) and 500 μg/mL zeocin (InVivogen).
# FLIPR Calcium Mobilization Assay for L-type Calcium Channel. One day prior to performing this assay, HEK293 cells stably expressing recombinant rat L-type calcium channel (LTCC) subunits (α1c, α2δ, and β1) were trypsinized, then seeded on poly-D-lysine-coated 96-well clear-bottom black plates (Becton Dickinson, Franklin Lakes, N.J.) at 75,000 cells/well. On the day of the assay, the plates were washed with LTCC wash buffer (127 mM NaCl, 2 mM MgCl2, 700 μM NaH2PO4, 5 mM CaCl2, 5 mM NaHCO3, 8 mM HEPES, 10 mM glucose, pH 7.4), then loaded with 0.1 mL of LTCC wash buffer containing Fluo-4 (3 μM final concentration, Molecular Probes, Eugene, Oreg.). After 1 hour, the cells were washed with 0.1 mL LTCC wash buffer and resuspended in 0.05 mL LTCC assay buffer (same composition as LTCC wash buffer). Plates were then transferred to a FLIPR^96 for assay. The FLIPR measured basal Fluo-4 fluorescence for 15 seconds, then added 0.05 mL of each compound tested diluted in LTCC assay buffer at final concentrations ranging from about 846 pM to about 17 μM. Fluo-4 fluorescence was then measured for 5 minutes. 0.1 mL KCl agonist dissolved in LTCC assay buffer was then added to the cells to produce a final concentration of 90 mM KCl, and fluorescence was measured for another 45 seconds. Data were collected over the entire time course and analyzed using Excel, Graph Pad Prism, or an in-house regression analysis software.
# T2 sequence (P22002 whole entry): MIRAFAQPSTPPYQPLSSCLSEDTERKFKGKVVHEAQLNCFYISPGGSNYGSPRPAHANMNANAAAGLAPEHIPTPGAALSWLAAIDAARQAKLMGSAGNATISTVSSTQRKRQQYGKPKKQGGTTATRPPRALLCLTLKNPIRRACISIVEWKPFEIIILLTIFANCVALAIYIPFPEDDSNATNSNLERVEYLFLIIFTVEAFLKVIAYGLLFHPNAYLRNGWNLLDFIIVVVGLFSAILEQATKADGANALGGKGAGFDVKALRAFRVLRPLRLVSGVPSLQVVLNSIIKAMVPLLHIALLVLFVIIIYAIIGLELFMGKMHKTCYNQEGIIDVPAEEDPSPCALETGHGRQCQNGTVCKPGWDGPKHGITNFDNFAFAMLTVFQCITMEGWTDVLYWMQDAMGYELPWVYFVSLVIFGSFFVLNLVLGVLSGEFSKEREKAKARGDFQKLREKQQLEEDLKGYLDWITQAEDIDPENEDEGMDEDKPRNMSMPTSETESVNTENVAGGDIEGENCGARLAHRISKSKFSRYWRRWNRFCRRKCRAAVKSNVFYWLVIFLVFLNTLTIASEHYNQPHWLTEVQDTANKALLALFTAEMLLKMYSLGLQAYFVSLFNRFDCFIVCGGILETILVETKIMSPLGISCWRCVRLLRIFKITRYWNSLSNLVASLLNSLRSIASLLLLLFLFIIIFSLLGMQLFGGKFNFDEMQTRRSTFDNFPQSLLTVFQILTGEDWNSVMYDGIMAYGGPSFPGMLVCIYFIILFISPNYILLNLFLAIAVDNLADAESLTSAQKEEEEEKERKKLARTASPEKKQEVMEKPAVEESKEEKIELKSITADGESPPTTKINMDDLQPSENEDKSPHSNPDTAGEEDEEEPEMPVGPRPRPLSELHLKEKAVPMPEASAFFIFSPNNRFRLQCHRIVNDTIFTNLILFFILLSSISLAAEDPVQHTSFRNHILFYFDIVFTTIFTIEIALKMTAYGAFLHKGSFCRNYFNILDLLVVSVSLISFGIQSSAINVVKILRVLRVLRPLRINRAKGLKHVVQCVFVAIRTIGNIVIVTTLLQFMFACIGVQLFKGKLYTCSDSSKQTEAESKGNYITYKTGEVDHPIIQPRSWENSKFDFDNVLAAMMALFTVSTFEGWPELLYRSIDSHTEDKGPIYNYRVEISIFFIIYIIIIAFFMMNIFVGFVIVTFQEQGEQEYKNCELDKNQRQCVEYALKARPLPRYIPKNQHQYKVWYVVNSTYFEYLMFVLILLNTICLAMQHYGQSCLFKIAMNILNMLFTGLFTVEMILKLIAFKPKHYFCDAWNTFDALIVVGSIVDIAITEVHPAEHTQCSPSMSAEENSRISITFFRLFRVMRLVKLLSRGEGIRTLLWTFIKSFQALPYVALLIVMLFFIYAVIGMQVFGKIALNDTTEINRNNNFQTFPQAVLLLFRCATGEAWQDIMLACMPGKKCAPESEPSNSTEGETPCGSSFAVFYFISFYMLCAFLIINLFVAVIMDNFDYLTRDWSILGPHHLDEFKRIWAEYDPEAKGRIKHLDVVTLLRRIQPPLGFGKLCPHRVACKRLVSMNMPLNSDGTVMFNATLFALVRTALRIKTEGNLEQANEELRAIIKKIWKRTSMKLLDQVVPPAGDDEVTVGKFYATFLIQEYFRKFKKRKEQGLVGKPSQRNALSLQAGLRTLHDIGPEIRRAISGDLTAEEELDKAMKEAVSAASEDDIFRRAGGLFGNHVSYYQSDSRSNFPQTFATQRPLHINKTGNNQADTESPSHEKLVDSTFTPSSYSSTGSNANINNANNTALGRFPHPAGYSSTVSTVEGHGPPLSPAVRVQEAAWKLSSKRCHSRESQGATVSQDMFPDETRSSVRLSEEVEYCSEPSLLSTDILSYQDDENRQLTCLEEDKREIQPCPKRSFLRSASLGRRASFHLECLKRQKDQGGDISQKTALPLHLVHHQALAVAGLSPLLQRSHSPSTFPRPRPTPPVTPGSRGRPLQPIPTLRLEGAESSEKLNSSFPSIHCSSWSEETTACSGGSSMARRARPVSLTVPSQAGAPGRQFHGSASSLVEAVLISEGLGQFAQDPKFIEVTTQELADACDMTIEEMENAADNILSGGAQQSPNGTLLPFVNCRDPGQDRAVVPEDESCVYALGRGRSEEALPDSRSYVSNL
# T2 sequence (P54290 25-944 partner limits assumed): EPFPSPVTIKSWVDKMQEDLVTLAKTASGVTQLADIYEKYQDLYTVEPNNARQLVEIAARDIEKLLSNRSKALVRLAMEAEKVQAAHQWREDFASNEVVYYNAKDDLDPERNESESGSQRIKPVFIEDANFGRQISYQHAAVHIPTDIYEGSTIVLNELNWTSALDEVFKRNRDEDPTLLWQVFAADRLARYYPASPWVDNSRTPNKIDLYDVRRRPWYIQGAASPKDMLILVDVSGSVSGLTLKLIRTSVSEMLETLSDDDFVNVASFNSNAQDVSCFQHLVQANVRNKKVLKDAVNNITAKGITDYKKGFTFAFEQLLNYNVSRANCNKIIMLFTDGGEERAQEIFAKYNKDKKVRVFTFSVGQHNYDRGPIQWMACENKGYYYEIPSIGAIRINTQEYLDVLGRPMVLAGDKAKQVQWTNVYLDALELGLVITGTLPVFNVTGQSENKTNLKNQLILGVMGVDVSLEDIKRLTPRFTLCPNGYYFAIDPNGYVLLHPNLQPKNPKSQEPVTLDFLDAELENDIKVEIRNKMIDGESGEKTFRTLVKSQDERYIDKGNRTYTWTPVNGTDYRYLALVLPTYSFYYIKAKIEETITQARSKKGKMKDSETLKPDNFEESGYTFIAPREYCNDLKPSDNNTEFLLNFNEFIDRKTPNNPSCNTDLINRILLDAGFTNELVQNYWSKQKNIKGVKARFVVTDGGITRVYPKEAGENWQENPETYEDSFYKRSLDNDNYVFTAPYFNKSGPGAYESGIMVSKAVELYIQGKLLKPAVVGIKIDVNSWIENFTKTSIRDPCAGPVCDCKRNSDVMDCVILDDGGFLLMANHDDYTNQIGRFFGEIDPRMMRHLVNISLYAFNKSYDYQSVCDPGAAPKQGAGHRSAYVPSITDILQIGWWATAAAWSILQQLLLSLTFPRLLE
# T2 sequence (P54290 945-1091 partner limits assumed): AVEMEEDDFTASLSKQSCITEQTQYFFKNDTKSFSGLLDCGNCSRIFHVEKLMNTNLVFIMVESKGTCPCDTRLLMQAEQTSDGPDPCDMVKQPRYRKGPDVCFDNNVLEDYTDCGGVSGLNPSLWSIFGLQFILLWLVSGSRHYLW
# T2 sequence (P54283 whole entry partner): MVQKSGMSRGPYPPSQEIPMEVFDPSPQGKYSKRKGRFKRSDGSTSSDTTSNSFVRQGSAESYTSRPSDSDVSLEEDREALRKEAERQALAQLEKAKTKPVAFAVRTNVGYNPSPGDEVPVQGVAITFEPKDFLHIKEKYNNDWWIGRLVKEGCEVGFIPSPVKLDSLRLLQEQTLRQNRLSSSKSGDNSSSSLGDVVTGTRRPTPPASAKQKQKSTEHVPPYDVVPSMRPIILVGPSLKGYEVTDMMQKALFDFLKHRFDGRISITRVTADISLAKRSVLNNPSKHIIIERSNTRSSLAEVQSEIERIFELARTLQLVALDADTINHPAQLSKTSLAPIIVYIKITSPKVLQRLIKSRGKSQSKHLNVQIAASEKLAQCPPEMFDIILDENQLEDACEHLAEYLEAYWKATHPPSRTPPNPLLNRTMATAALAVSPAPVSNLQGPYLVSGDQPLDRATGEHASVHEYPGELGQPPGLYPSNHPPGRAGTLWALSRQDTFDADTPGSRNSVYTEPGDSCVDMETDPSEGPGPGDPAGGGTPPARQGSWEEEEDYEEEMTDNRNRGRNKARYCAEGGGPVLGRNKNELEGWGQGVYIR
Compound,IC50 [1] [nM],IC50 [2] [nM]
"O=C(Nc1ccc(F)cc1)ON=C1CCN(C(=O)Oc2cccc(C(F)(F)F)c2)CC1 [Example 131, 3-(trifluoromethyl)phenyl 4-(4-fluorophenylcarbamoyloxyimino)piperidine-1-carboxylate]",1800,
"O=C(CON=C1CCN(S(=O)(=O)c2ccc(OC(F)(F)F)cc2)CC1)Nc1ccccc1 [Example 2, N-Phenyl-2-[1-(4-trifluoromethoxybenzenesulfonyl)piperidin-4-ylideneaminooxy]acetamide]",420,> 20000
"O=C(CON=C1CCN(S(=O)(=O)c2ccc(OC(F)(F)F)cc2)CC1)NC1CCCCC1 [Example 100, N-Cyclohexyl-2-[1-(4-trifluoromethoxybenzenesulfonyl)piperidin-4-ylideneaminooxy]acetamide]",410,> 20000
"CN(C(=O)CON=C1CCN(S(=O)(=O)c2ccc(OC(F)(F)F)cc2)CC1)c1ccccc1 [Example 3, N-Methyl-N-phenyl-2-[1-(4-trifluoromethoxybenzenesulfonyl)piperidin-4-ylideneaminooxy]acetamide]",1200,8500
"O=C(CON=C1CCN(S(=O)(=O)c2ccc(OC(F)(F)F)cc2)CC1)NCc1ccccc1 [Example 98, N-Benzyl-2-[1-(4-trifluoromethoxybenzenesulfonyl)piperidin-4-ylideneaminooxy]acetamide]",1100,> 20000
"O=C(Nc1ccc(F)cc1)ON=C1CCN(S(=O)(=O)c2cccc(C(F)(F)F)c2)CC1 [Example 104, 1-(3-(trifluoromethyl)phenylsulfonyl)piperidin-4-one O-4-fluorophenylcarbamoyl oxime]",240,> 20000
"CCCNC(=O)CON=C1CCN(S(=O)(=O)c2ccc(OC(F)(F)F)cc2)CC1 [Example 102, N-Propyl-2-[1-(4-trifluoromethoxybenzenesulfonyl)piperidin-4-ylideneaminooxy]acetamide]",210,> 20000
"CC(C)CNC(=O)CON=C1CCN(S(=O)(=O)c2ccc(OC(F)(F)F)cc2)CC1 [Example 99, N-Isobutyl-2-[1-(4-trifluoromethoxybenzenesulfonyl)piperidin-4-ylideneaminooxy]acetamide]",300,> 20000
